Experiments:
Experiment in all cases: relative viability (nuclei count vs DMSO), 5 days (fraction); higher = more cells survive
[1] = compound: CCN1C(=O)C2=CC(=C(N=C2N(C1=O)C3CC3)N)C(=O)N + CC(=O)Nc1cccc(-n2c(=O)n(C3CC3)c(=O)c3c(Nc4ccc(I)cc4F)n(C)c(=O)c(C)c32)c1 [Trametinib] (partner 0.02 µM)
Summary of the method: (§1)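 Dosing by pin tool came one day after lung cancer cell lines were seeded in 1536-well plates, using either one drug or a fixed anchor-drug dose plus five library-drug doses (not always all listed) in √10 steps. After 5 days, nuclei were counted on 4× images. Relative viability is treated-well nuclei count divided by vehicle-well nuclei count, and values are medians of duplicate plates.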

[2] = compound: CCN1C(=O)C2=CC(=C(N=C2N(C1=O)C3CC3)N)C(=O)N + CC(=O)c1c(C)c2cnc(Nc3ccc(N4CCNCC4)cn3)nc2n(C2CCCC2)c1=O [Palbociclib] (partner 0.5 µM)
Summary of the method: as §1

[3] = compound: CCN1C(=O)C2=CC(=C(N=C2N(C1=O)C3CC3)N)C(=O)N + Cc1cc(Nc2cc(N3CCN(C)CC3)nc(Sc3ccc(NC(=O)C4CC4)cc3)n2)n[nH]1 [Tozasertib] (partner 0.1 µM)
Summary of the method: as §1

[4] = compound: CCN1C(=O)C2=CC(=C(N=C2N(C1=O)C3CC3)N)C(=O)N + Cc1nc(Nc2ncc(C(=O)Nc3c(C)cccc3Cl)s2)cc(N2CCN(CCO)CC2)n1 [Dasatinib] (partner 0.075 µM)
Summary of the method: as §1

[5] = compound: CCN1C(=O)C2=CC(=C(N=C2N(C1=O)C3CC3)N)C(=O)N + NC(=O)Nc1cc(-c2cccc(F)c2)sc1C(=O)N[C@H]1CCCNC1 [AZD7762] (partner 0.2 µM)
Summary of the method: as §1

Row | Cell Line | relative viability ([1]; first compound 0.253 µM) | relative viability ([1]; first compound 0.8 µM) | relative viability ([1]; first compound 2.53 µM) | relative viability ([1]; first compound 8 µM) | relative viability ([2]; first compound 0.253 µM) | relative viability ([2]; first compound 0.8 µM) | relative viability ([2]; first compound 2.53 µM) | relative viability ([2]; first compound 8 µM) | relative viability ([3]; first compound 0.253 µM) | relative viability ([3]; first compound 0.8 µM) | relative viability ([3]; first compound 2.53 µM) | relative viability ([3]; first compound 8 µM) | relative viability ([4]; first compound 0.253 µM) | relative viability ([4]; first compound 0.8 µM) | relative viability ([4]; first compound 2.53 µM) | relative viability ([4]; first compound 8 µM) | relative viability ([5]; first compound 0.253 µM) | relative viability ([5]; first compound 0.8 µM) | relative viability ([5]; first compound 2.53 µM) | relative viability ([5]; first compound 8 µM)
1 | LC-2-ad | 0.918 | 0.865 | 0.845 | 0.871 | 0.424 | 0.53 | 0.483 | 0.496 | 0.399 | 0.507 | 0.484 | 0.452 | 0.537 | 0.526 | 0.652 | 0.698 | 0.866 | 0.771 | 0.853 | 0.834
2 | NCI-H358 | 0.121 | 0.134 | 0.144 | 0.138 | 0.122 | 0.134 | 0.127 | 0.14 | 0.0962 | 0.114 | 0.0945 | 0.119 | 0.157 | 0.148 | 0.189 | 0.17 | 0.535 | 0.536 | 0.552 | 0.564
3 | NCI-H2170 | 0.866 | 0.817 | 0.891 | 1.01 | 0.385 | 0.389 | 0.395 | 0.363 | 0.752 | 0.788 | 0.692 | 0.632 | 0.518 | 0.549 | 0.596 | 0.522 | 0.889 | 0.846 | 0.882 | 0.867
4 | A-427 | 0.827 | 0.7 | 0.7 | 0.767 | 0.497 | 0.522 | 0.486 | 0.535 | 0.223 | 0.226 | 0.208 | 0.206 | 0.729 | 0.825 | 0.744 | 0.779 | 0.73 | 0.791 | 0.731 | 0.789
5 | NCI-H1666 | 0.906 | 0.778 | 0.83 | 0.815 | 0.683 | 0.654 | 0.629 | 0.65 | – | 0.608 | 0.584 | 0.618 | – | 0.828 | 0.877 | 0.762 | 0.888 | 0.824 | 0.909 | 0.84
6 | LOU-NH91 | 0.791 | 0.76 | 0.772 | 0.772 | 0.542 | 0.554 | 0.516 | 0.513 | 0.603 | 0.649 | 0.635 | 0.683 | 0.499 | 0.526 | 0.54 | 0.527 | 0.786 | 0.73 | 0.725 | 0.749
7 | ABC-1 | – | – | – | – | 0.819 | – | 0.709 | 0.799 | 0.17 | 0.167 | 0.178 | 0.149 | 0.559 | 0.473 | 0.565 | 0.56 | 0.479 | – | 1.15 | 0.954
8 | NCI-H1651 | 0.784 | 0.835 | 0.778 | 0.819 | 0.471 | 0.489 | 0.512 | 0.501 | 0.622 | 0.586 | 0.631 | 0.508 | 0.454 | 0.465 | 0.357 | 0.381 | 0.463 | 0.434 | 0.442 | 0.399
